# Assay: Animal Experiment I, drug administration during obesity induction (high-fat diet)
# Format: in vivo, B6 female mice
# Conditions: oral gavage daily, 8 weeks, compared to obesity control group
# Procedure: In this experimental example, 8-week old B6 female mice were experimented and divided into a normal control group, an obesity control group, a resveratrol group (the administered dose of resveratrol was 61.5 mg/kg B.W.), a green tea extract group (the administered dose of green tea extract was 123 mg/kg B.W.), and the plant extract compositions ME001 of the present invention group (the administered dose of ME001 was 676.5 mg/kg B.W.) Five female mice were included in each group for experimentation. During the experimental period, with the exception of the normal control group, the other groups were fed with high-fat diet for eight consecutive weeks to induce obesity symptoms, and were also fed by oral gavage with the test substance daily during the same eight weeks. The obesity control group was fed by oral gavage with an equal volume of sterile water, and the difference in body weight of each group of mice was evaluated. The body weight and average food intake of each animal were recorded weekly during the experimental period. The mice were sacrificed after the experimentation. […] The data of each group are expressed as mean±SD. Letters a, b, and c indicate the results of statistical analysis, wherein different letters indicate significant statistical difference between groups (p<0.05), and identical letters indicate no significant statistical difference between groups (p>0.05).
smiles,measurement,value
Oc1ccc(C=Cc2cc(O)cc(O)c2)cc1 [resveratrol],total body weight gain,did not show statistical difference
